Values of other authors, collected in patent US20250177267A1, “A CLEANSING COMPOSITION” (Conopco, Inc., d/b/a UNILEVER, priority 2022, published 2025).

Settings: prior art acids with pKa greater than 4.5

SMILES: CCCCCC(=O)O [hexanoic acid]
- pKa: 4.72
